Source: patent US7928139B2 (Amgen Inc., priority 2006, dated 2011)

Each molecule was assayed against HIF PHD2 (Homo sapiens, UniProt Q9GZT9) (assay: PHD2 inhibition assay (TR-FRET, VCB-Eu detection of hydroxylated P564-HIF1α peptide)). Conditions: 2 nM PHD2, 100 nM P564-HIF1α peptide, 0.25 μM 2-oxoglutarate, 100 μM FeCl2, 2 mM ascorbic acid.
Type: biochemical
Method: Inhibition of HIF PHD2 activity was quantified utilizing the TR-FRET technology. HIF PHD2 catalyzes a hydroxyl modification on the proline residue of the P564-HIF1α peptide substrate (Biotin-DLEMLAPYIPMDDDFQL (SEQ ID NO: 7)) resulting in recognition and binding of the europylated Von Hippel-Lindau protein (pVHL), elongin B and elongin C heterotrimeric (VCB-Eu) complex.
The PHD2 inhibition assay was executed by addition of freshly dissolved FeCl2 to 178.57 μM (100 μM final concentration) in PHD2 Reaction Buffer containing 30 mM MES, pH 6, 10 mM NaCl, 0.25% Brij-35, 0.01% BSA, and 1% DMSO. 28 μL of the iron solution and 2 μL of inhibitor compounds serially diluted in 100% DMSO (5% DMSO final) were added to black polypropylene 96-well microtiter plates. To that, 10 μL of 10 nM PHD2 (2 nM final) was added to all wells of the plate except for the 8 wells of column 12 (LO control), and allowed to incubate at room temperature on the shaker for one hour. Column 6 was the HI control containing PHD2 enzyme and 5% DMSO vehicle, but no inhibitor compound. To initiate the PHD2 enzymatic reaction, 10 μL of a solution containing 500 nM P564-HIF1α peptide (100 nM final), 10 mM ascorbic acid (2 mM final), and 1.25 μM 2-oxoglutarate (α-ketoglutarate; 0.25 μM final) in PHD2 Reaction Buffer was added to all wells of the plate and allowed to incubate on the shaker at room temperature for one hour.
The reaction was terminated by addition of 25 μL TR-FRET Buffer (50 mM TRIS-HCl, pH 9, 100 mM NaCl, 0.05% BSA, and 0.5% Tween-20) containing 150 mM succinate (product inhibitor; 50 mM final), 75 nM streptavidin-APC (25 nM final), and 7.5 nM VCB-Eu (2.5 nM final). The TR-FRET detection reagents were placed on a shaker for 1 hour to reach binding equilibrium before reading on the Discovery platform (PerkinElmer). Europium is excited at 315 nm and phosphoresces at 615 nm with a large Stoke's shift. APC, in turn, emits at 655 nm upon excitation at 615 nm. The TR-FRET signal is measured as the ratio of the APC 655 nm signal divided by the internal europium reference 615 nm emission signal.
The POC (percentage of control) was determined by comparing the signal from hydroxylated peptide substrate in the enzyme reaction containing inhibitor compound with that from PHD2 enzyme with DMSO vehicle alone (HI control), and no enzyme (LO control). POC was calculated using the formula: % control (POC)=(cpd−average LO)/(average HI−average LO)*100. Data (consisting of POC and inhibitor concentration in μM) was fitted to a 4-parameter equation (y=A+((B−A)/(1+((x/C)^D))), where A is the minimum y (POC) value, B is the maximum y (POC), C is the x (cpd concentration) at the point of inflection and D is the slope factor) using a Levenburg-Marquardt non-linear regression algorithm.

HIF PHD2, sequence (Q9GZT9 whole entry): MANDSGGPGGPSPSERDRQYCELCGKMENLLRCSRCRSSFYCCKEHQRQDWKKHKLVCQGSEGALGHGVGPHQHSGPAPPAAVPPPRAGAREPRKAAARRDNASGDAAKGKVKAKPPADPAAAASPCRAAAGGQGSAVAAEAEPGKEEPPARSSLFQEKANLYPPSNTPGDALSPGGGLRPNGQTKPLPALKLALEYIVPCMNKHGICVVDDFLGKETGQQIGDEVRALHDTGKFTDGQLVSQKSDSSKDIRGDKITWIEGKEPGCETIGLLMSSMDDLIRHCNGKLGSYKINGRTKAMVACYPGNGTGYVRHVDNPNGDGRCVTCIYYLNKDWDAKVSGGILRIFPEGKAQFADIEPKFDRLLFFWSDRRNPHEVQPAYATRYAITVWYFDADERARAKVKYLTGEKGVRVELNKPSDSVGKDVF

Row | IC50 [nM] | SMILES
1 | 100 to 500 | CN(C)c1ccc(-c2ccc3c(c2)C(O)=C(C(=O)NCC(=O)O)C(=O)C3(C)C)cc1 [Example 36, N-((6-(4-(Dimethylamino)phenyl)-4-hydroxy-1,1-dimethyl-2-oxo-naphthalen-3-yl)carbonyl)glycine]
2 | 500 to 1000 | CC1(C)C(=O)C(C(=O)NCC(=O)O)=C(O)c2cc(-c3ccccc3Cl)ccc21 [Example 37]
3 | 500 to 1000 | CC1(C)C(=O)C(C(=O)NCC(=O)O)=C(O)c2cc(-c3ccc(Cl)cc3)ccc21 [Example 38, N-((6-(4-Chlorophenyl)-4-hydroxy-1,1-dimethyl-2-oxo-naphthalen-3-yl)carbonyl)glycine]
4 | 100 to 500 | CN(C)c1cccc(-c2ccc3c(c2)C(O)=C(C(=O)NCC(=O)O)C(=O)C3(C)C)c1 [Example 39, N-((6-(3-(Dimethylamino)phenyl)-4-hydroxy-1,1-dimethyl-2-oxo-naphthalen-3-yl)carbonyl)glycine]
5 | < 100 | CC1(C)C(=O)C(C(=O)NCC(=O)O)=C(O)c2cc(Br)ccc21 [Example 40, N-((6-Bromo-4-hydroxy-1,1-dimethyl-2-oxo-naphthalen-3-yl)carbonyl)glycine]
6 | < 100 | CC1(C)C(=O)C(C(=O)NCC(=O)O)=C(O)c2ccc(C#N)cc21 [Example 41, N-((7-Cyano-4-hydroxy-1,1-dimethyl-2-oxo-naphthalen-3-yl)carbonyl)glycine]
7 | < 100 | CC1(C)C(=O)C(C(=O)NCC(=O)O)=C(O)c2cc(C#N)ccc21 [Example 42, N-((6-Cyano-4-hydroxy-1,1-dimethyl-2-oxo-naphthalen-3-yl)carbonyl)glycine]
8 | 100 to 500 | CCC1(C)C(=O)C(C(=O)NCC(=O)O)=C(O)c2ccc(Cl)cc21 (centres unmarked) [Example 43, N-((7-Chloro-1-ethyl-4-hydroxy-1-methyl-2-oxo-naphthalen-3-yl)carbonyl)glycine]
9 | < 100 | O=C(O)CNC(=O)C1=C(O)c2ccc(F)cc2C2(CCOCC2)C1=O [Example 44, N-((7-Fluoro-4-hydroxy-2-oxo-2′,3′,5′,6′-tetrahydro-spiro[naphthalene-1,4′-pyran]-3-yl)carbonyl)glycine]
10 | < 100 | O=C(O)CNC(=O)C1=C(O)c2ccc(C(F)(F)F)cc2C2(CCOCC2)C1=O [Example 45, N-((7-Trifluoromethyl-4-hydroxy-2-oxo-2′,3′,5′,6′-tetrahydro-spiro[naphthalene-1,4′-pyran]-3-yl)carbonyl)glycine]
11 | < 100 | O=C(O)CNC(=O)C1=C(O)c2ccc(Cl)cc2C2(CCOCC2)C1=O [Example 46, N-((7-Chloro-4-hydroxy-2-oxo-2′,3′,5′,6′-tetrahydro-spiro[naphthalene-1,4′-pyran]-3-yl)carbonyl)glycine]
12 | < 100 | CC1(C)C(=O)C(C(=O)NCC(=O)O)=C(O)c2ccc(F)cc21 [Example 47, N-((7-Fluoro-4-hydroxy-1,1-dimethyl-2-oxo-naphthalen-3-yl)carbonyl)glycine]
13 | < 100 | CC1(C)C(=O)C(C(=O)NCC(=O)O)=C(O)c2ccc(Cl)cc21 [Example 48, N-((7-Chloro-4-hydroxy-1,1-dimethyl-2-oxo-naphthalen-3-yl)carbonyl)glycine]
14 | < 100 | CC1(C)C(=O)C(C(=O)NCC(=O)O)=C(O)c2ccc(C(F)(F)F)cc21 [Example 49, N-((7-Trifluoromethyl-4-hydroxy-1,1-dimethyl-2-oxo-naphthalen-3-yl)carbonyl)glycine]
15 | 100 to 500 | C[C@H](NC(=O)C1=C(O)c2ccc(Br)cc2C(C)(C)C1=O)C(=O)O [Example 50, N-((7-Bromo-4-hydroxy-1,1-dimethyl-2-oxo-naphthalen-3-yl)carbonyl)-L-alanine]
16 | < 100 | CC1(C)C(=O)C(C(=O)NCC(=O)O)=C(O)c2ccc(-c3cccnc3)cc21 [Example 51, N-((7-(3-Pyridyl)-4-hydroxy-1,1-dimethyl-2-oxo-naphthalene-3-yl)carbonyl)glycine]

Row | IC50 [nM] | SMILES
17 | 100 to 500 | CC1(C)C(=O)C(C(=O)NCC(=O)O)=C(O)c2ccc(-c3ccccc3)cc21 [Example 52, N-((7-Phenyl-4-hydroxy-1,1-dimethyl-2-oxo-naphthalen-3-yl)carbonyl)glycine]
18 | < 100 | CC1(C)C(=O)C(C(=O)NCC(=O)O)=C(O)c2ccc(Br)cc21 [Example 53, N-((7-Bromo-4-hydroxy-1,1-dimethyl-2-oxo-naphthalen-3-yl)carbonyl)glycine]
19 | > 10000 | CC(C)(NC(=O)C1=C(O)c2cc(Cl)ccc2C2(CCOCC2)C1=O)C(=O)O [Example 54, N-((6-Chloro-4-hydroxy-2-oxo-2′,3′,5′,6′-tetrahydro-spiro[naphthalene-1,4′-pyran]-3-yl)carbonyl)-2-methylalanine]
20 | 100 to 500 | C[C@H](NC(=O)C1=C(O)c2cc(Cl)ccc2C2(CCOCC2)C1=O)C(=O)O [Example 55, N-((6-Chloro-4-hydroxy-2-oxo-2′,3′,5′,6′-tetrahydro-spiro[naphthalene-1,4′-pyran]-3-yl)carbonyl)-L-alanine]
21 | > 10000 | C[C@@H](NC(=O)C1=C(O)c2cc(Cl)ccc2C2(CCOCC2)C1=O)C(=O)O [Example 56, N-((6-Chloro-4-hydroxy-2-oxo-2′,3′,5′,6′-tetrahydro-spiro[naphthalene-1,4′-pyran]-3-yl)carbonyl)-D-alanine]
22 | < 100 | CC1(C)C(=O)C(C(=O)NCC(=O)O)=C(O)c2cc(Cl)cc(F)c21 [Example 57, N-((6-Chloro-8-fluoro-4-hydroxy-1,1-dimethyl-2-oxo-naphthalen-3-yl)carbonyl)glycine]
23 | < 100 | O=C(O)CNC(=O)C1=C(O)c2cc(F)c(F)cc2C2(CCOCC2)C1=O [Example 58, N-((6,7-Difluoro-4-hydroxy-2-oxo-2′,3′,5′,6′-tetrahydro-spiro[naphthalene-1,4′-pyran]-3-yl)carbonyl)glycine]
24 | < 100 | CC1(C)C(=O)C(C(=O)NCC(=O)O)=C(O)c2cc(F)c(F)cc21 [Example 59, N-((6,7-Difluoro-4-hydroxy-1,1-dimethyl-2-oxo-naphthalen-3-yl)carbonyl)glycine]
25 | 100 to 500 | O=C(O)CNC(=O)C1=C(O)c2cc(Cl)ccc2C2(CCCCC2)C1=O [Example 60, N-((6′-Chloro-4′-hydroxy-2′-oxo-spiro[cyclohexane-1,1′-naphthalen]-3′-yl)carbonyl)glycine]
26 | < 100 | Cc1ccc2c(c1)C(O)=C(C(=O)NCC(=O)O)C(=O)C2(C)C [Example 61, N-((6-Methyl-4-hydroxy-1,1-dimethyl-2-oxo-naphthalen-3-yl)carbonyl)glycine]
27 | < 100 | O=C(O)CNC(=O)C1=C(O)c2cc(Cl)c(Cl)cc2C2(CCOCC2)C1=O [Example 62, N-((6,7-Dichloro-4-hydroxy-2-oxo-2′,3′,5′,6′-tetrahydro-spiro[naphthalene-1,4′-pyran]-3-yl)carbonyl)glycine]
28 | < 100 | CC1(C)C(=O)C(C(=O)NCC(=O)O)=C(O)c2ccccc21 [Example 63, N-((4-Hydroxy-1,1-dimethyl-2-oxo-naphthalen-3-yl)carbonyl)glycine]
29 | < 100 | CC1(C)C(=O)C(C(=O)NCC(=O)O)=C(O)c2cc(Cl)c(Cl)cc21 [Example 64, N-((6,7-Dichloro-4-hydroxy-1,1-dimethyl-2-oxo-naphthalen-3-yl)carbonyl)glycine]
30 | 500 to 1000 | Cc1ccccc1-c1ccc2c(c1)C(O)=C(C(=O)NCC(=O)O)C(=O)C2(C)C [Example 65, N-((6-(2-Methylphenyl)-4-hydroxy-1,1-dimethyl-2-oxo-naphthalen-3-yl)carbonyl)glycine]
31 | 100 to 500 | C[C@H](NC(=O)C1=C(O)c2cc(Cl)ccc2C(C)(C)C1=O)C(=O)O [Example 66, N-((6-Chloro-4-hydroxy-1,1-dimethyl-2-oxo-naphthalen-3-yl)carbonyl)-L-alanine]
32 | 1000 to 10000 | O=C(O)CNC(=O)C1=C(O)c2cc(-c3ccccc3)ccc2C2(CCCC2)C1=O [Example 67, N-((4′-Hydroxy-2′-oxo-6′-phenyl-spiro[cyclopentane-1,1′-naphthalen]-3′-yl)carbonyl)glycine]
